In US10933032B2, “Methods for the treatment of cancer using coenzyme Q10 combination therapies” (Berg LLC, priority 2013, dated 2021):

What was measured:
[1] = system: Mycosis fungoides (cutaneous T Cell lymphoma); conditions: methotrexate as a single agent; cited from earlier work
[2] = system: acute lymphoblastic leukemias; conditions: in combination with 60 mg/m^2 of prednisone, given daily; usually within 4 to 6 weeks; cited from earlier work
[3] = system: MIAPaCa-2 human pancreatic tumor cells; assay: Xenogeneic mouse human pancreatic cancer model, tumors harvested at mortality (size, weight, vasculature, palpation); assay type: in vivo, NOD scid gamma (NSG) mice; conditions: Example 1, single agents: Group 2 Coenzyme Q10 IV 50 mg/kg/day; Group 3 gemcitabine 150 mg/kg/week; FIG. 2
[4] = system: MIAPaCa-2 human pancreatic tumor cells; assay: Xenogeneic mouse human pancreatic cancer model, survival; assay type: in vivo, NOD scid gamma (NSG) mice; conditions: Example 1, Regimen 1, single agent: IV 4% Coenzyme Q10 50 mg/kg/day, or IV gemcitabine 150 mg/kg/week for 3 weeks with one week rest; FIG. 1

SMILES | Clinical responses, patients treated [1] | Remissions, patients treated [2] | Growth of pancreatic tumors (tumor size at time of death) vs control [3] | Survival (prolongation of life) compared to untreated control [4]
CN(Cc1cnc2nc(N)nc(N)c2n1)c1ccc(C(=O)N[C@@H](CCC(=O)O)C(=O)O)cc1 [Methotrexate] | 50% of patients treated. Dosage in early stages is usually 5 to 50 mg once | prednisone, given daily, produced remissions in 50% of patients treated, |  | 
Nc1ccn([C@@H]2O[C@H](CO)[C@@H](O)C2(F)F)c(=O)n1 [gemcitabine, reference compound] |  |  | inhibited the growth of pancreatic tumors | prolongation of life as compared to untreated control
